The assay deals with T1, Signal transducer and activator of transcription 1-alpha/beta (Homo sapiens, UniProt P42224).
T1 sequence (P42224 whole entry): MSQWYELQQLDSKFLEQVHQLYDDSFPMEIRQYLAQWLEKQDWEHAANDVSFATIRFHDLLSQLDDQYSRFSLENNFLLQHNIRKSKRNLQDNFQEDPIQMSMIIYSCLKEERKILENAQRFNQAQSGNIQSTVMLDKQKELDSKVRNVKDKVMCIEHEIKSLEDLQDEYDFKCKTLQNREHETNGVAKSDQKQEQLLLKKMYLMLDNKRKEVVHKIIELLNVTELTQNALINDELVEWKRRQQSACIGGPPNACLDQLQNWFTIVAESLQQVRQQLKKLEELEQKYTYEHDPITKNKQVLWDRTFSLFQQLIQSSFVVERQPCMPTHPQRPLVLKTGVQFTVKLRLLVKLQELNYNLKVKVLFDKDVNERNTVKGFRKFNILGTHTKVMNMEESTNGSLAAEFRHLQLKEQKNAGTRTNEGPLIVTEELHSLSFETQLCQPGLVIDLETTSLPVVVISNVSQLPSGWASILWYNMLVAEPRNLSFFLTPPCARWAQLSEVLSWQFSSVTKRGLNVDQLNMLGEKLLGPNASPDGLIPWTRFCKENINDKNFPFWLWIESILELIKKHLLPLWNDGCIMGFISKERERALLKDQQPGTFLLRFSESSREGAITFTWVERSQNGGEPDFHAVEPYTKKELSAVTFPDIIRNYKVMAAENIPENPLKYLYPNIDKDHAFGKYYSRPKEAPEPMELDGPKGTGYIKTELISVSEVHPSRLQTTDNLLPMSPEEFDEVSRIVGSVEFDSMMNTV
In words: Electrophoretic Mobility Shift Assay (EMSA). As to conditions: pH 7.8; 22 °C. Here is the method: STAT proteins were expressed in Sf9 cells from a baculovirus encoding the recombinant protein. A nuclear extract of the Sf9 cells was incubated with 32P-labeled high affinity c-fos sis inducible element (hSIE) either alone or in the presence of inhibitor. After incubation, samples were electrophoresed on polyacrylamide gels. The gels were dried, exposed to a phosphorimager screen and scanned. IC50 values were derived from plots of spot intensity versus phosphopeptide concentration. The affinity of peptides to the SH2 domain is measured by the intensity of the radioactivity of the Stat-DNA complex band in the electrophoresis gel.
On the technique in general: A gel shift assay detects complexes by their altered migration in electrophoresis.

Where only a bound is given, the exact number is not on record here.

One may read the IC50 as the midpoint of a concentration-inhibition curve.

As to `Cc1ccc(S(=O)(=O)OCC(=O)Nc2ccc(C(=O)O)c(O)c2)cc1` [2-hydroxy-4-(2-{[(4-methylbenzene)sulfonyl]oxy}acetamido)benzoic acid], the IC50 was more than 300 µM.

(Values after BindingDB's records for doi:10.1073/pnas.0609757104 (University of Central Florida College of Medicine, 2007).)
